Assay [1] has as its target T1, Electrophorus electricus AChE (EeAChE) (Electrophorus electricus, UniProt O42275).
T1 construct: purified AChE from Electrophorus electricus (Type V-S, Sigma-Aldrich); purchased Sigma-Aldrich Type V-S
In words: Inhibition of EeAChE (Ellman's assay). The class given is biochemical. Particulars: mean ± SEM, at least three independent experiments. The procedure: (§1) For the preliminary screening of the inhibitory potencies, Electrophorus electricus AChE (EeAChE) and horse serum BuChE (eqBuChE) were used following the Ellman’s assay.
(§2) Assessment of the inhibitory power of BCPOs was performed following the spectrophotometric method of Ellman using purified AChE from Electrophorus electricus (Type V-S, Sigma-Aldrich) or BuChE from horse serum (lyophilized powder, Sigma-Aldrich). Enzymes were first dissolved in 0.1 M phosphate buffer (pH 8.0) and then aliquoted in small vials for easy handling. Compounds stock solutions in DMSO (10 mM) were diluted when necessary with DMSO to prepare appropriate dilutions of each compound. The assay was performed in a final volume of 3 mL of a 0.1 M phosphate-buffered solution at pH 8.0, containing 5,5′-dithiobis-2-nitrobenzoic acid (DTNB, 2625 µL, 0.35 mM, final concentration), EeAChE (29 µL, 0.035 U/mL final concentration) or eqBuChE (60 µL, 0.05 U/mL final concentration) tested compound (3 µL, different concentrations) and 1% (w/v) Bovine Albumin Serum phosphate-buffered (pH 8.0) solution (BSA, 40 µL). The inhibition in comparison to control without compound was determined by pre-incubating this blend at room temperature with each compound at nine different concentrations for 10 min. Then, acetylthiocholine iodide (105 µL, 0.35 mM, final concentration) or butyrylthiocholine iodide (150 µL, 0.5 mM final concentration) was added and incubated for another 15 min at rt. […] Calculation of IC50 values was performed with GraphPad Prism 5. Each concentration was measured in triplicate. Data are expressed as mean ± SEM.
(In Ellman's method for cholinesterases, released thiocholine reacts with DTNB.)

For assay [2], the target named is T2, horse serum BuChE (eqBuChE) (Equus caballus, UniProt P81908).
T2 construct: BuChE from horse serum (lyophilized powder, Sigma-Aldrich); purchased Sigma-Aldrich; host or cells: horse serum
The assay can be described thus: Inhibition of eqBuChE (Ellman's assay). Particulars: 10 µM compound. The class given is biochemical. The procedure:
as §1, §2

Assay [3] in a line: Oxygen radical absorbance capacity by fluorescence (ORAC-FL). Conditions: mean ± SD. The procedure: Trolox was used as standard, fluorescein as fluorescent probe and 2,2′-azobis(2-amidinopropane) dihydrochloride (AAPH) as the peroxyl radical source. Ferulic acid was used as a positive control.
The antioxidant power of BCPOs was determined following the ORAC-FL method using fluorescein as the fluorescent probe. (±)-6-Hydroxy-2,5,7,8-tetramethylchromane-2-carboxylic acid (Trolox), fluorescein (FL) and AAPH were bought from Sigma-Aldrich (Saint Louis, MO, USA). A Varioskan Flash plate reader with built-in injectors (Thermo Scientific, Waltham, MA, USA) was used. The final volume reaction mixture was 200 µL and the reaction was carried out at 37 °C in 75 mM phosphate buffer (pH 7.4). The tested compounds and Trolox standard were dissolved in DMSO to 10 mM and further diluted in phosphate buffer. The final concentrations were 0.1–1 µM for the tested compounds and 1–8 µM for Trolox standard. The blank was composed of 120 µL of FL, 60 µL of AAPH and 20 µL of phosphate buffer (pH = 7.4) and was added in each assay. The antioxidant (20 µL) and fluorescein (FL, 120 µL, final concentration of 70 nM) were incubated in a black 96-well microplate Nunc, purchazed from Thermo Fisher Scientific, Ecublens, Switzerland) for 15 min at 37 °C. Then, AAPH, 60 µL, final concentration of 12 mM) solution was added quickly using the built-in injector. […] The microplate was automatically shaken prior to each reading. All the experiments were made in triplicate and at least three different assays were performed for each sample.
Using MS Excel software, regression equations were extrapolated by plotting the net AUC against the antioxidant concentration. The ORAC values were then obtained by dividing the slope of the latter curve between the slope of the Trolox curve obtained in the same assay. Final ORAC values were expressed as Trolox equivalents. Data are expressed as mean ± SD.

In general, IC50 refers to the concentration at which inhibition is half-maximal. Read a high IC50 as lower potency. What is called inhibition is the relative decrease from the control value, in per cent.

T1 sequence (O42275 24-633): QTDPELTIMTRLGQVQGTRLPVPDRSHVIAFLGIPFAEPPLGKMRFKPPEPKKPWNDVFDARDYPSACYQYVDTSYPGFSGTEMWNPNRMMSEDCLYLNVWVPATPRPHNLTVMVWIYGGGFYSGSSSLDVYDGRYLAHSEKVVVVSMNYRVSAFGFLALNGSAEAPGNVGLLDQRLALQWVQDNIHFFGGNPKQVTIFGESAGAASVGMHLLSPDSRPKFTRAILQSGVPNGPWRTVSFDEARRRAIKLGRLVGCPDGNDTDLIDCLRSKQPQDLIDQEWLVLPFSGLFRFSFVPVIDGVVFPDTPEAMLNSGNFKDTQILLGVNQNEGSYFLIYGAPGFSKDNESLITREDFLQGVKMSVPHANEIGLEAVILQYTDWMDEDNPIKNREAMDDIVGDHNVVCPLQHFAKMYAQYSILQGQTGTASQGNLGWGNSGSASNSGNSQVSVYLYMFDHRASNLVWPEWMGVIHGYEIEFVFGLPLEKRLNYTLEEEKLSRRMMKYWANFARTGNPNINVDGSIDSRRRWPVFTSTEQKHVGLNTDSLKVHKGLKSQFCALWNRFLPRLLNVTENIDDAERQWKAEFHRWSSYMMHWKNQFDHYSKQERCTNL
T2 sequence (P81908 whole entry): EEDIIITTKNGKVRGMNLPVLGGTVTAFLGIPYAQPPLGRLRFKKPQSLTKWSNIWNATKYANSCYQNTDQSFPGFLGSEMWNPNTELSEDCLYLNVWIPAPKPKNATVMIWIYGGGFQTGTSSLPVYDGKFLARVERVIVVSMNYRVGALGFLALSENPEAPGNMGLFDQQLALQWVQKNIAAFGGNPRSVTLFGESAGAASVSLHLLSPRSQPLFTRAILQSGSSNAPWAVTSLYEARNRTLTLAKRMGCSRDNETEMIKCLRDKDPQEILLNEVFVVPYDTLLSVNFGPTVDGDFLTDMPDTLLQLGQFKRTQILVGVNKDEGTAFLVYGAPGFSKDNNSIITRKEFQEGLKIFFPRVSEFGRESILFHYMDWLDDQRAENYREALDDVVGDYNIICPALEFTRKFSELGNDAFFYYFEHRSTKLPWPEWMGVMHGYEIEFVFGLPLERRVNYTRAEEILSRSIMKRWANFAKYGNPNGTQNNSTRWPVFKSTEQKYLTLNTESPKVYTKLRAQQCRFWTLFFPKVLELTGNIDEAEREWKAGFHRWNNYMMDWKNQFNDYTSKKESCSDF

Molecule `O=c1c2c(nc3n1CCC3)Oc1ccc3ccccc3c1C2c1ccccc1` (stereo not drawn) [3Aa, 14-Phenyl-10,11-dihydro-14H-benzo[5,6]chromeno[2,3-d]pyrrolo[1,2-a]pyrimidin-13(9H)-one] had a concentration for half-maximal inhibition (IC50) in assay [1] of 518 ± 87.9 nM. This molecule had an inhibition at 10 µM in assay [2] of 12.1 ± 1.4%. For the same molecule, the ORAC in assay [3] is 2.6 ± 0.1 Trolox equivalents.
`O=c1c2c(nc3n1CCCCC3)Oc1ccc3ccccc3c1C2c1ccccc1` (stereo not drawn) [3Ac, 16-Phenyl-10,11,12,13,-tetrahydro-16H-benzo[5,6]chromeno[2′,3′,4,5]pyrimido[1,2-a]azepin-15(9H)-one]: the concentration for half-maximal inhibition (IC50) in assay [1] stood at 301 ± 6.5 nM. The same molecule displayed an inhibition at 10 µM in assay [2] of 28.4 ± 7.3%. The molecule also had an ORAC in assay [3] of 2.5 ± 0.2 Trolox equivalents.
In the case of `COc1cccc(C2c3c(nc4n(c3=O)CCCCC4)Oc3ccc4ccccc4c32)c1` (stereo not drawn) [3Bc, 16-(3′-Methoxyphenyl)-10,11,12,13-tetrahydro-16H-benzo[5,6]chromeno[2′,3′,4,5]pyrimido[1,2-a]azepin-15(9H)-one], inhibition in assay [1] was half-maximal at 108 ± 7.2 nM (IC50). This molecule also yielded an inhibition at 10 µM in assay [2] of less than 10%. The molecule further yielded an ORAC in assay [3] of 3.5 ± 0.3 Trolox equivalents.
`Cc1ccc(C2c3c(nc4n(c3=O)CCC4)Oc3ccc4ccccc4c32)cc1` (stereo not drawn) [3Ca, 14-(4′-Methylphenyl)-10,11-dihydro-14H-benzo[5,6]chromeno[2,3-d]pyrrolo[1,2-a]pyrimidin-13(9H)-one] showed an IC50 in assay [1] of 112 ± 21.7 nM. In assay [2], this molecule registered an inhibition at 10 µM of 17.4 ± 1.8%. For the same molecule, in assay [3], the ORAC amounted to 2.7 ± 0.3 Trolox equivalents.
The like results for `Cc1ccc(C2c3c(nc4n(c3=O)CCCCC4)Oc3ccc4ccccc4c32)cc1` (stereo not drawn) [3Cc, 16-(4’-Methylphenyl)-10,11,12,13-tetrahydro-16H-benzo[5,6]chromeno[2′,3′,4,5]pyrimido[1,2-a]azepin-15(9H)-one] were, in that order, 167 ± 7.8 nM, less than 10% and 3.1 ± 0.2 Trolox equivalents.
In the case of `O=c1c2c(nc3n1CCC3)Oc1c(ccc3ccccc13)C2c1ccccc1` (stereo not drawn) [4Aa, 7-Phenyl-11,12-dihydro-7H-benzo[7,8]chromeno[2,3-d]pyrrolo[1,2-a]pyrimidin-8(10H)-one], the concentration for half-maximal inhibition (IC50) in assay [1] came out at 318 ± 26 nM. This molecule also yielded an inhibition at 10 µM in assay [2] of 23.1 ± 3.1%. Besides, in assay [3], the ORAC was found to be 2.1 ± 0.1 Trolox equivalents.
Take `O=c1c2c(nc3n1CCCC3)Oc1c(ccc3ccccc13)C2c1ccccc1` (stereo not drawn) [4Ab, 7-Phenyl-10,11,12,13-tetrahydro-7H-benzo[7,8]chromeno[2,3-d]pyrido[1,2-a]pyrimidin-8-one]: half-maximal inhibition in assay [1] (IC50) was put at 384 ± 19.4 nM. The molecule also displayed an inhibition at 10 µM in assay [2] of 54.6 ± 1.8%. This molecule also returned an ORAC in assay [3] of 2.3 ± 0.2 Trolox equivalents.
As for `O=c1c2c(nc3n1CCCCC3)Oc1c(ccc3ccccc13)C2c1ccccc1` (stereo not drawn) [4Ac, 7-Phenyl-11,12,13,14-tetrahydro-7H-benzo[7,8]chromeno[2′,3′,4,5]pyrimido[1,2-a]azepin-8(10H)-one], the IC50 in assay [1] is 290 ± 8.3 nM. Also, the inhibition at 10 µM in assay [2] turned out to be 24.2 ± 3.1%. Besides, the ORAC in assay [3] was found to be 2.5 ± 0.1 Trolox equivalents.
Consider `COc1cccc(C2c3ccc4ccccc4c3Oc3nc4n(c(=O)c32)CCC4)c1` (stereo not drawn) [4Ba, 7-(3′-Methoxyphenyl)-11,12-dihydro-7H-benzo[7,8]chromeno[2,3-d]pyrrolo[1,2-a]pyrimidin-8(10H)-one], for which 327 ± 38.9 nM corresponded to half-maximal inhibition in assay [1] (IC50). The same molecule showed an inhibition at 10 µM in assay [2] of 38 ± 1.6%. For the same molecule, the ORAC in assay [3] turned out to be 3.8 ± 0.1 Trolox equivalents.
In assay [1], `COc1cccc(C2c3ccc4ccccc4c3Oc3nc4n(c(=O)c32)CCCC4)c1` (stereo not drawn) [4Bb, 7-(3′-Methoxyphenyl)-10,11,12,13-tetrahydro-7H-benzo[7,8]chromeno[2,3-d]pyrido[1,2-a]pyrimidin-8-one] gave an IC50 of 153 ± 3.1 nM. For the same molecule, the inhibition at 10 µM in assay [2] was less than 10%. Moreover, the ORAC in assay [3] was 3.7 ± 0.2 Trolox equivalents.
In the same order, the values of `COc1cccc(C2c3ccc4ccccc4c3Oc3nc4n(c(=O)c32)CCCCC4)c1` (stereo not drawn) [4Bc, 7-(3′-Methoxyphenyl)-11,12,13,14-tetrahydro-7H-benzo[7,8]chromeno[2′,3′,4,5]pyrimido[1,2-a]azepin-8(10H)-one] are 195 ± 6.2 nM, 31.1 ± 2.1% and 3.4 ± 0.2 Trolox equivalents.
